Source: US20250064967A1, “COMBINATION OF ANTIBODY-DRUG CONJUGATE AND ATR INHIBITOR” (AstraZeneca UK Limited, priority 2021, published 2025)

B1: DS-1062: anti-TROP2 antibody-drug conjugate; exatecan-derivative drug-linker conjugated to the anti-TROP2 antibody via a thioether bond; DAR ~4 (conjugate, chains of the INN, looked up)
VH: QVQLVQSGAEVKKPGASVKVSCKASGYTFTTAGMQWVRQAPGQGLEWMGWINTHSGVPKYAEDFKGRVTISADTSTSTAYLQLSSLKSEDTAVYYCARSGFGSSYWYFDVWGQGTLVTVSS
VL: DIQMTQSPSSLSASVGDRVTITCKASQDVSTAVAWYQQKPGKAPKLLIYSASYRYTGVPSRFSGSGSGTDFTLTISSLQPEDFAVYYCQQHYITPLTFGQGTKLEIK
modifications: exatecan-derivative drug-linker, DAR ~4

How the values were obtained:
Parameters in all cases: species or system Female Nude mice
[1] = tested on: CTG-3718 xenograft (ovarian PDX, relapsed on talazoparib); experiment: Antitumor test in vivo, CTG3718 ovarian patient derived xenograft model (Example 8); settings: CTG-3718 ovarian PDX; DS-1062 10 mg/kg IV single dose; AZD6738 25 mg/kg PO BID Day 1-14
Excerpt: (§1) Female Nude mice (Envigo) aged 5-8 weeks were used, following 7 days acclimatisation before entry into the study. The human patient-derived xenograft (PDX) model, CTG-3718, was established from fragments of freshly resected tumor of a ovarian cancer patient whom relapsed on treatment with PARP inhibitor talazoparib. This PDX was obtained in accordance with appropriate consent procedures. This ovarian PDX model was subcutaneously passaged in vivo as fragments from animal to animal in nude mice. When tumors reached approximately 250 mm^3, similar-sized tumors were randomly assigned to treatment groups as shown in Table 11:
(§2) The dose of compound for each animal was calculated based on the individual body weight on the day of dosing. DS-1062 and AZD6738 were dosed on the same day, with DS-1062 being administered approximately 5 hour post the PO dose of AZD6738. DS-1062 was administered as a single dose at 10 mg/kg on day 1, and AZD6738 was administered at 25 mg/kg BID for 14 days.
(§3) The dosing solution for DS-1062 was prepared on the day of dosing by diluting the DS-1062 stock (20.1 mg/ml) in 25 mM histidine buffer, 9% sucrose (pH5.5) to 2 mg/ml for 10 mg/kg dosing solution. The dosing solution was mixed well using a pipette before administration via IV injection at a dosing volume of 5 ml/kg.
DMSO (10% of the total vehicle volume) was added to the compound and mixed well with a pellet pestle. […]

[2] = tested on: NCI-N87 xenograft (gastric cancer cell line); experiment: Antitumor test in vivo, dose optimization, NCI-N87 xenograft model (Example 7); settings: DS-1062 10 mg/kg IV single dose, AZD6738 25 mg/kg PO BID Day 1-14
Procedure: (§4) Female Nude mice (Envigo) aged 5-8 weeks were used, following 7 days acclimatisation before entry into the study. 5×10^6 NCI-N87 tumor cells (gastric cancer cell line) (1:1 in Matrigel) were implanted subcutaneously onto the flank of the female Nude mice. When tumors reached approximately 250 mm^3, similar-sized tumors were randomly assigned to treatment groups as shown in Table 9:
The dose of compound for each animal was calculated based on the individual body weight on the day of dosing. DS-1062 was administered as a single dose at 10 mg/kg on day 1, and AZD6738 was administered at 25 mg/kg BID as listed in Table 9.
as §3, with “solution. Each” for “solution. The”
(§5) DMSO (10% of the total vehicle volume) was added to the compound and mixed well with a pellet pestle. Sonication for approximately 5 minutes was required to fully dissolve the compound. […]
(§6) Tumor growth inhibition (TGI) was calculated as follows:
(§7) Statistical significance was evaluated using one-tailed t-test of (log(relative tumor volume)=log(final vol/start vol)) at the day of final measure, comparing to vehicle control. […]

[3] = tested on: NCI-N87 xenograft (gastric cancer cell line); experiment: Antitumor test in vivo, NCI-N87 xenograft model (Example 4); settings: DS-1062 10 mg/kg IV single dose, AZD6738 25 mg/kg PO QD 14 days
Procedure: as §4, with “(Charles River)” for “(Envigo)”, “4:” for “9:”
as §2, with “QD” for “BID”, “days. Duration of dosing was for 14 days.” for “days.”
The dosing solutions for DS-1062 were prepared on the day of dosing by diluting the DS-1062 stock (20.1 mg/ml) in 25 mM histidine buffer, 9% sucrose (pH5.5) to 0.6 mg/ml, and 2 mg/ml for the 3 mg/kg and 10 mg/kg dosing solutions, respectively. Each dosing solution was mixed well using a pipette before administration via IV injection at a dosing volume of 5 ml/kg. […]
as §6, §7

[4] = tested on: N87-DS-1062 resistant tumor cell xenograft (gastric cancer cell line); experiment: Antitumor test in vivo, N87 DS-1062 resistant model (Example 9); settings: N87-DS-1062 resistant xenograft; DS-1062 10 mg/kg IV single dose; AZD6738 25 mg/kg PO BID Day 1-7
Procedure: as §4, with “(Charles River)” for “(Envigo)”, “N87-DS-1062 resistant” for “NCI-N87”, “13:” for “9:”
as §2, with “7” for “14”
as §3
as §5, with “compound. Following which, propylene glycol (40% of the total vehicle volume) was added and mixed well using a magnetic stirrer.” for “compound.”

[5] = tested on: CTG-3303 xenograft (TNBC PDX, relapsed on talazoparib); experiment: Antitumor test in vivo, TNBC patient derived xenograft model CTG-3303 (Example 5); settings: CTG-3303 TNBC PDX; for TGI % day 46: DS-1062 10 mg/kg IV single dose, AZD6738 25 mg/kg PO QD 14 days; for percentage of mice achieving a complete response (tumor volume=0 mm^3): day 93 post treatment, 8 mice per group, DS-1062 10 mg/kg, AZD6738 25 mg/kg QD
Excerpt: as §1, with “mice (Charles River)” for “mice (Envigo)”, “model, CTG-3303,” for “model, CTG-3718,”, “a triple negative breast” for “a ovarian”, “cancer (TNBC)” for “cancer”, “This TNBC” for “This ovarian”, “Table 6:” for “Table 11:”
as §2, with “QD” for “BID”, “days. Duration of dosing was for 14 days.” for “days.”
The dosing solutions for DS-1062 were prepared on the day of dosing by diluting the DS-1062 stock (20.1 mg/ml) in 25 mM histidine buffer, 9% sucrose (pH5.5) to 0.6 mg/ml, and 2 mg/ml for the 3 mg/kg and 10 mg/kg dosing solutions, respectively. Each dosing solution was mixed well using a pipette before administration via IV injection at a dosing volume of 5 ml/kg.
DMSO (10% of the total vehicle volume) was added to the compound and mixed well with a pellet pestle. Sonication for approximately 5 minutes was required to fully dissolve the compound. Following which, propylene glycol (40% of the total vehicle volume) was added and mixed well using a magnetic stirrer. A volume of 10 ml of sterile water was added to the glass wheaton vial to rinse any remaining compound from the vial then transferred to the glass bottle. The remaining volume of sterile water in total (50% of the final vehicle volume) was added to the glass bottle and mixed well using a magnetic stirrer. The dosing solution was protected from light and kept at room temperature for up to 7 days being continually mixed. The final dosing matrix for 25 mg/kg AZD6738 was a clear solution with a faint yellow hue.
Values shown are geometric mean±SEM; n=8 for all treatment groups. The mice which had reached the humane endpoint (e.g. large tumor burden) during the study were removed from the group and the remaining mice were used for the calculation of the TGI.

Molecule	TGI % day 22 [1] [%]	TGI % day 42 [2] [%]	TGI % day 33 [3] [%]	TGI % day 21 [4] [%]	TGI % day 46 [5] [%]	percentage of mice achieving a complete response (tumor volume=0 mm^3) [5] [%]
C[C@@H]1COCCN1c1cc(C2([S@](C)(=N)=O)CC2)nc(-c2ccnc3[nH]ccc23)n1 [AZD6738, 4-{4-[(3R)-3-Methylmorpholin-4-yl]-6-[1-((R)-S-methylsulfonimidoyl)cyclopropyl]pyrimidin-2-yl}-1H-pyrrolo[2,3-b]pyridine]	−25.7	23.7	30.1	−9.8	2.3	0
B1	69.8	74.8	84.1	0.77	88.2	0
